Results reported in patent US8952042B2, “FXR (NR1H4) binding and activity modulating compounds” (Phenex Pharmaceuticals AG, priority 2009, dated 2015).

How the values were obtained:
[1] = biological target: T1, human FXR alpha ligand binding domain (Homo sapiens, UniProt Q96RI1); assay: FRET activity assay (ligand mediated cofactor peptide interaction, LANCE); type: biochemical; conditions: potency range
T1 construct: made in house; host or cells: E. coli BL21(DE3), vector pDEST15
T1 sequence (Q96RI1 187-472 isoform Q96RI1-2): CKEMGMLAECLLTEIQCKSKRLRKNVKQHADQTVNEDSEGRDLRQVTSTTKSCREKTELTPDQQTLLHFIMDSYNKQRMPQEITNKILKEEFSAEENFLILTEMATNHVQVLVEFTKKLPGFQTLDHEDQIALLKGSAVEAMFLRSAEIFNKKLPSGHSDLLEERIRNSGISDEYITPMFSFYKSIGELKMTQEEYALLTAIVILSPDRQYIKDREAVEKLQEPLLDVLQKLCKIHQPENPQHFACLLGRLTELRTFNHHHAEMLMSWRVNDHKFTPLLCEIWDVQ
Procedure: Determination of a ligand mediated cofactor peptide interaction to quantify ligand binding to the nuclear receptor FXR was performed as follows: Preparation of human FXR alpha ligand binding domain: The human FXRalpha LBD was expressed in E. coli strain BL21(DE3) as an N-terminally GST tagged fusion protein. The DNA encoding the FXR ligand binding domain was cloned into vector pDEST15 (Invitrogen). Expression was under control of an IPTG inducible T7 promoter. The amino acid boundaries of the ligand binding domain were amino acids 187-472 of Database entry NM_005123 (RefSeq). Expression and purification of the FXR-LBD: An overnight preculture of a transformed E. coli strain was diluted 1:20 in LB-Ampicillin medium and grown at 30° C. to an optical density of OD600=0.4-0.6. Gene expression was then induced by addition of 0.5 mM IPTG. Cells were incubated an additional 6 h at 30° C., 180 rpm. Cells were collected by centrifugation (7000×g, 7 min, room temperature). Per liter of original cell culture, cells were resuspended in 10 mL lysis buffer (50 mM Glucose, 50 mM Tris pH 7.9, 1 mM EDTA and 4 mg/mL lysozyme) and left on ice for 30 min. Cells were then subjected to sonication and cell debris removed via centrifugation (22000×g, 30 min, 4° C.). Per 10 mL of supernatant 0.5 mL prewashed Glutathione 4B sepharose slurry (Qiagen) was added and the suspension kept slowly rotating for 1 h at 4° C. Glutathione 4B sepharose beads were pelleted by centrifugation (2000×g, 15 sec, 4° C.) and washed twice in wash buffer (25 mM Tris, 50 mM KCl, 4 mM MgCl2 and 1M NaCl). The pellet was resuspended in 3 mL elution buffer per liter of original culture (elution buffer: 20 mM Tris, 60 mM KCl, 5 mM MgCl2 and 80 mM glutathione added immediately prior to use as powder). The suspension was left rotating for 15 min at 4° C., the beads pelleted and eluted again with half the volume of elution buffer than the first time. The eluates were pooled and dialysed overnight in 20 mM Hepes buffer (pH 7.5) containing 60 mM KCl, 5 mM MgCl2 as well as 1 mM dithiothreitol and 10% (v/v) glycerol. The protein was analysed by SDS-Page.
The method measures the ability of putative ligands to modulate the interaction between the purified bacterial expressed FXR ligand binding domain (LBD) and a synthetic biotinylated peptide based on residues 676-700 of SRC-1 (LCD2, 676-700). […] The ligand binding domain (LBD) of FXR was expressed as fusion protein with GST in BL-21 cells using the vector pDEST15. Cells were lysed by sonication, and the fusion proteins purified over glutathione sepharose (Pharmacia) according to the manufacturers instructions. For screening of compounds for their influence on the FXR-peptide interaction, the Perkin Elmer LANCE technology was applied. This method relies on the binding dependent energy transfer from a donor to an acceptor fluorophor attached to the binding partner of interest. For ease of handling and reduction of background from compound fluorescence LANCE technology makes use of generic fluorophore labels and time resolved detection Assays were done in a final volume of 25 μL in a 384 well plate, in a Tris-based buffer (20 mM Tris-HCl pH 7.5; 60 mM KCl, 5 mM MgCl2; 35 ng/μL BSA), containing 20-60 ng/well recombinantly expressed FXR-LBD fused to GST, 200-600 nM N-terminally biotinylated peptide, representing SRC1 aminoacids 676-700, 200 ng/well Streptavidin-xIAPC conjugate (Prozyme) and 6-10 ng/well Eu W1024—antiGST (Perkin Elmer). DMSO content of the samples was kept at 1%. After generation of the assay mix and diluting the potentially FXR modulating ligands, the assay was equilibrated for one hour in the dark at room temperature in FIA-plates black 384 well (Greiner). The LANCE signal was detected by a Perkin Elmer VICTOR2V™ Multilabel Counter. The results were visualized by plotting the ratio between the emitted light at 665 and 615 nm.

[2] = biological target: T2, FXR ligand binding domain (Homo sapiens, UniProt Q96RI1); assay: Mammalian One Hybrid (M1H) Gal4 reporter assay in HEK293 cells; type: cell-based; conditions: potency range
T2 construct: expressed in transfected cells; host or cells: HEK293 cells (DSMZ), transient transfection of pCMV-BD-FXR-LBD
T2 sequence (Q96RI1 187-472 isoform Q96RI1-2): T1 sequence (Q96RI1 187-472 isoform Q96RI1-2)
Procedure: Determination of a ligand mediated Gal4 promoter driven transactivation to quantify ligand binding mediated activation of FXR was performed as follows: The cDNA part encoding the FXR ligand binding domain was cloned into vector pCMV-BD (Stratagene) as a fusion to the yeast GAL4 DNA binding domain under the control of the CMV promoter. The amino acid boundaries of the ligand binding domain were amino acids 187-472 of Database entry NM_005123 (RefSeq). The plasmid pFR-Luc (Stratagene) was used as the reporter plasmid, containing a synthetic promoter with five tandem repeats of the yeast GAL4 binding sites, driving the expression of the Photinus pyralis (American firefly) luciferase gene as the reporter gene. In order to improve experimental accuracy the plasmid pRL-CMV (Promega) was cotransfected. pRL-CMV contains the constitutive CMV promoter, controlling the expression of the Renilla reniformis luciferase. All Gal4 reporter gene assays were done in HEK293 cells (obtained from DSMZ, Braunschweig, Germany) grown in MEM with L-Glutamine and Earle's BSS supplemented with 10% fetal bovine serum, 0.1 mM nonessential amino acids, 1 mM sodium pyruvate, and 100 units Penicillin/[…] per mL at 37° C. in 5% CO2. Medium and supplements were obtained from Invitrogen. For the assay, […] were plated per well in 96 well plates in 100 μL per well MEM without Phenol Red and L-Glutamine and with Earle's BSS supplemented with 10% charcoal/dextran treated FBS (HyClone, South Logan, Utah), 0.1 mM nonessential amino acids, 2 mM glutamine, 1 mM sodium pyruvate, and 100 units Penicillin/[…] per mL, incubated at 37° C. in 5% CO2. The following day the cells were >90% confluence. Medium was removed and cells were transiently transfected using 20 μL per well of a OptiMEM—polyethylene-imine-based transfection-reagent (OptiMEM, Invitrogen; Polyethyleneimine, Aldrich Cat No. 40, 827-7) including the three plasmids described above. MEM with the same composition as used for plating cells was added 2-4 h after addition of transfection mixture. Then compound stocks, prediluted in MEM were added (final vehicle concentration not exceeding 0.1%). Cells were incubated for additional 16 h before firefly and renilla luciferase activities were measured sequentially in the same cell extract using a Dual-Light-Luciferase-Assay system (Dyer et al., Anal. Biochem. 2000, 282, 158-161). All experiments were done in triplicates.

[3] = UV stability, irradiation at 366 nm on a DMSO thin film, LCMS; type: physicochemical; conditions: 366 nm emission, 250 μM in DMSO thin film, FIG. 3m
Procedure: A different, more rapid experimental setup was used to investigate a broader set of compounds in comparison to GW4064. The substances were dissolved in reagent grade DMSO (99.5%, Karl Roth) at a concentration of 250 μM. DMSO solution was spread over a silica glass slide to a depth of approximately 2 mm and irradiated using a UV lamp set to 366 nm emission (Benda Instruments, Wiesloch Germany) using an 8 W tube set approximately 2.5 cm from the target materials. The solution was sampled prior to irradiation (T=0 min) and at various intervals thereafter. Stocks and samples were maintained in foil wrapped tubes out of direct light. Samples were injected (2 μL) directly onto a LCMS System for analysis without any further preparation.

Compound	EC50 [1]	EC50 [2]	photostability compared to GW4064 [3]
O=C(O)c1ccc(C2CC2c2ccc(OCc3c(-c4c(Cl)cccc4Cl)noc3C3CC3)cc2Cl)cc1 (single isomer, unassigned; (-)) [Example 12c, (−)-4-(2-(2-chloro-4-((5-cyclopropyl-3-(2,6-dichlorophenyl)isoxazol-4-yl)methoxy)phenyl)cyclopropyl)benzoic acid]	10 to 100 nM	10 to 100 nM	higher photostability
CS(=O)(=O)NC(=O)c1ccc(C2CC2c2ccc(OCc3c(-c4c(Cl)cccc4Cl)noc3C3CC3)cc2Cl)cc1 (centres unmarked) [Example 14, 4-(2-(2-chloro-4-((5-cyclopropyl-3-(2,6-dichlorophenyl)isoxazol-4-yl)methoxy)phenyl)cyclopropyl)-N-(methylsulfonyl)benzamide]	> 100 nM	10 to 100 nM	higher photostability
Clc1cc(OCc2c(-c3c(Cl)cccc3Cl)noc2C2CC2)ccc1C1CC1c1ccc(-c2nnn[nH]2)cc1 (centres unmarked) [Example 16, 4-((4-(2-(4-(1H-tetrazol-5-yl)phenyl)cyclopropyl)-3-chlorophenoxy)methyl)-5-cyclopropyl-3-(2,6-dichlorophenyl)isoxazole]	> 100 nM	10 to 100 nM	higher photostability
CC(C)n1nc(C(=O)O)cc1C1CC1c1ccc(OCc2c(-c3c(Cl)cccc3Cl)noc2C2CC2)cc1Cl (centres unmarked) [Example 20, 5-(2-(2-chloro-4-((5-cyclopropyl-3-(2,6-dichlorophenyl)isoxazol-4-yl)methoxy)phenyl)cyclopropyl)-1-isopropyl-1H-pyrazole-3-carboxylic acid]	< 10 nM	< 10 nM	higher photostability
CC(C)n1nc(C(=O)O)c2ccc(C3CC3c3ccc(OCc4c(-c5c(Cl)cccc5Cl)noc4C4CC4)cc3Cl)cc21 (centres unmarked) [Example 21, 6-(2-(2-chloro-4-((5-cyclopropyl-3-(2,6-dichlorophenyl)isoxazol-4-yl)methoxy)phenyl)cyclopropyl)-1-isopropyl-1H-indazole-3-carboxylic acid]	< 10 nM	< 10 nM	–
Cc1cc(C2CC2c2ccc(OCc3c(-c4c(Cl)cccc4Cl)noc3C3CC3)cc2Cl)cc(C)c1C(=O)O (centres unmarked) [Example 23, 4-(2-(2-chloro-4-((5-cyclopropyl-3-(2,6-dichlorophenyl)isoxazol-4-yl)methoxy)phenyl)cyclopropyl)-2,6-dimethylbenzoic acid]	10 to 100 nM	< 10 nM	–
O=C(O)c1ccc(C2CC2c2ccc(OCc3c(-c4ccccc4OC(F)(F)F)noc3C3CC3)cc2Cl)cc1 (centres unmarked) [Example 24]	> 100 nM	> 100 nM	–
O=C(O)CNC(=O)c1ccc(C2CC2c2ccc(OCc3c(-c4c(Cl)cccc4Cl)noc3C3CC3)cc2Cl)cc1 (centres unmarked) [Example 28, 2-(4-(2-(2-chloro-4-((5-cyclopropyl-3-(2,6-dichlorophenyl)isoxazol-4-yl)methoxy)phenyl)cyclopropyl)benzamido)acetic acid]	> 100 nM	> 100 nM	–
